The subject of this assay is FCA-induced mechanical hypersensitivity. Nature of the assay: Guinea Pig FCA Model (mechanical hyperalgesia, paw pressure). The note with it: male Dunkin-Hartley guinea-pigs, FCA intraplantar left paw, oral dosing 24 hours later, reading 1 hour after drug administration; Compound A 1.5 mg/kg, Compound B 1 mg/kg. The class given is in vivo. As to the method:
100 μl of 1 mg/ml FCA was injected intraplantar into the left paw of 6 groups of 6 male Dunkin-Hartley guinea-pigs (average weight 330 g) in order to induce inflammation and evoke a mechanical hypersensitivity (Ref. Stein, C., Millan, M. J., and Herz, A., Unilateral inflammation of the hind paw in rats as a model of prolonged noxious stimulation: alterations in behaviour and nociceptive thresholds, Pharmacol. Biochem. Behav., 31 (1988) 445-451). 24 hours later 1.5 mg/kg rofecoxib, 1 mg/kg N-(2-Bromophenyl)-N′-[((R)-1-(5-trifluoromethyl-2-pyridyl)pyrrolidin-3-yl)]urea and a combination of both was administered orally with the vehicle being 1% methylcellulose, the dosing volume being 2 ml/kg and dosing straight into the stomach. The methylcellulose was added gradually to the compound into the pestle and mortar and ground together. The mixtures were then sonnicated for 20 minutes. Behavioural readouts of mechanical hyperalgesia were obtained before FCA adminsitration (naive reading), after FCA but before drug administration (predose reading) and 1 hour after drug administration. […] The readout used was paw withdrawal in response to paw pressure (Ref. Randall L O, Selitto J J. (1957) A method for measurement of analgesic activity on inflammed tissue. Arch Int. Pharmacodyn 61, 409419.) and the end point was paw withdrawal. […]

As for `CS(=O)(=O)c1ccc(C2=C(c3ccccc3)C(=O)OC2)cc1` [Compound A, rofecoxib], the “% reversal of mechanical hypersensitivity” value was 30.6%.
For `O=C(Nc1ccccc1Br)N[C@@H]1CCN(c2ccc(C(F)(F)F)cn2)C1` [Compound B, N-(2-Bromophenyl)-N′-[((R)-1-(5-trifluoromethyl-2-pyridyl)pyrrolidin-3-yl)]urea], the “% reversal of mechanical hypersensitivity” value is recorded as 32.5%.
